From publication PMC8950868, “Identifying Human PTP1B Enzyme Inhibitors from Marine Natural Products: Perspectives for Developing of Novel Insulin-Mimetic Drugs” (Pharmaceuticals, 2022)

What was measured:
[1] = molecular target: T1, human recombinant PTP1B (1–302) (Homo sapiens, UniProt P18031); assay: PTP1B enzymatic assay (p-NPP hydrolysis; preliminary screening and IC50); format: biochemical; conditions: for Effect on PTP1B activity in preliminary screening: 20 µM of each compound, 30 min; for IC50: 2.5 mM p-NPP, pH 7.0, 37 °C, mean ± SD (n = 3), read-out: IC50 values determined on PTP1B
T1 construct: human recombinant PTP1B (1–302)
T1 sequence (P18031 1-302): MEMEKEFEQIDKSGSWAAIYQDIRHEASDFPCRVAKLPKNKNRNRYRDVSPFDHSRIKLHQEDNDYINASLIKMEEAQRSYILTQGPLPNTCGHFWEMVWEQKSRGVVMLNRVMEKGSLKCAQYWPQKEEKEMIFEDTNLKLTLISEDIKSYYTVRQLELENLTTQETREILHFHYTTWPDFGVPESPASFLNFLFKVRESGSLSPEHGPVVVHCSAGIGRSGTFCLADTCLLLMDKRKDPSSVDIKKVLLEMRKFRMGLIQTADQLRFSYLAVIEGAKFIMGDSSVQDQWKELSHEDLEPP
Protocol: We performed enzymatic assays as previously described. For each assay, an aliquot of human recombinant PTP1B (1–302) was added in the assay buffer (0.075 M β,β-dimethylglutarate pH 7.0 containing 1 mM EDTA, 0.1 mM DTT and a p-nitrophenylphosphate (p-NPP) (Chemcruz, Santa Cruz Biotechnology (Santa Cruz, CA, USA)). The reactions were performed at 37 °C in a final volume of 1 mL. After adequate time (30 min) of incubation, the reactions were stopped adding 2 mL of 0.1 M KOH in each sample. The released amount of p-nitrophenol, product of the reaction, was determined by measuring the absorbance at 400 nm in a 1 cm pathlength cuvette.
The IC50 value of compounds against PTP1B was determined by measuring the hydrolysis rate of the enzyme in the presence of a fixed substrate concentration (2.5 mM p-NPP) and increasing inhibitor concentrations (generally 14–16 different concentrations). Each test was carried out in triplicate. Experimental data were normalized respect to control samples and then fitted using a non-linear fitting software, using the following equation: Vi/V0=Max−Min/1+x/IC50^slope+Min where the Vi/V0 value represents the relative activity calculated in presence of each inhibitor concentration; the maximum and minimum value of the activity are represented by “Max” and “Min”, respectively; “x” is the concentration of the inhibitor; IC50 is the inhibitor concentration able to decrease the enzymatic activity up to 50%; “slope” represents the slope of the curve in the transition zone.
Figure 2 Preliminary screening assay on PTP1B. All assays were started by diluting an aliquot of PTP1B in the assay solution containing substrate alone (control test) or substrate and an aliquot of each compound (20 µM, final concentration). After 30 min, the reactions were stopped by adding a concentrated KOH solution. The enzyme activity was determined by measuring the amount of p-nitrophenol that was released in each sample using a spectrophotometer. Data obtained were normalized respect to control sample. […] Statistical analysis was carried out using one way ANOVA followed by Tukey’s HSD test for pairwise comparisons. Statistics have been drawn on raw data and compare samples to control (Ctr). * p < 0.05; ** p < 0.01.
Figure 3 Determination of the IC50 values with compounds 3, 8a, 8b, 9a and 9b. An aliquot of PTP1B enzyme was diluted in the presence of increasing concentration of the compounds. The activity of PTP1B was determined by measuring the absorbance of the sample at 400 nm, using a spectrophotometer. Data obtained were normalized respect to the control sample and analysed using a non-linear fitting software.

human recombinant AR = molecular target: T2, human recombinant AR (Homo sapiens, UniProt P15121); assay: AR enzymatic assay (NADPH oxidation, L-idose substrate); format: biochemical; conditions: for % residual activity of human AR / remaining activity at 210 µM: 210 µM (maximal concentration used); for % residual activity of human AR: 210 µM; for remaining activity at 43 µM: 43 µM (maximal concentration used)
T2 construct: made in house
Protocol: The human recombinant AR, purified to electrophoretic homogeneity as described, was used as target enzyme. AR activity was determined at 37 °C as previously described by evaluating the decrease in absorbance at 340 nm linked to NADPH oxidation using a Biochrom Libra S60 spectrophotometer. The standard assay mixture contained 0.25 M sodium phosphate buffer pH 6.8, 0.18 mM NADPH, 0.42 M ammonium sulfate, 0.5 mM EDTA and 4.7 mM D,L-glyceraldehyde. One unit of enzyme activity is the amount that catalyses the conversion of 1 µmol of substrate/min in the above assay conditions. For AR inhibition studies, 0.8 mM L-idose was used as substrate in the conditions described above, in the presence of 10 mU of enzyme and of a final concentration of DMSO of 0.7% (v/v).

AR = test system: AR; parameters: method as in PMID 34677434; conditions: cited from earlier work
PTP1B = test system: PTP1B; parameters: method as in PMID 34677434; conditions: cited from earlier work
HepG2 cells = test system: HepG2 cells; parameters: method as in PMID 34677434; conditions: cited from earlier work
GST–PTP1B fusion protein = test system: GST–PTP1B fusion protein; parameters: method as in PMID 27064611; conditions: different pH value, read-out: IC50 on PTP1B previously determined; cited from earlier work
[2] = read-out: % residual activity of human AR

## CCCCC[C@@H](O)[C@@H](O)CC[C@H](CCCC)OC(C)=O (relative stereo) [Compound 7a]
[1]
  Effect on PTP1B activity in preliminary screening: loss of activity

## CCCCC[C@H](O)[C@H](O)CC[C@H](CCCC)OC(C)=O (relative stereo) [Compound 7b]
[1]
  Effect on PTP1B activity in preliminary screening: loss of activity

## CCCCC[C@H](OP(=O)(O)O)[C@H](O)CC[C@H](CCCC)OC(C)=O (relative stereo) [Compound 8b]
Human recombinant AR
  % residual activity of human AR: 74 ± 8%
Human recombinant AR; [2]
  remaining activity at 210 µM: 76%
[1]
  Effect on PTP1B activity in preliminary screening: reducing PTP1B activity
  IC50: 37.1 ± 6.5 µM

## CCCCC[C@@H](O)[C@H](CC[C@H](CCCC)OC(C)=O)OP(=O)(O)O (relative stereo) [Compound 9a]
Human recombinant AR; 107 µM (maximal concentration used), read-out: % residual activity of human AR
  remaining activity at 107 µM: 86 ± 2%
[1]
  Effect on PTP1B activity in preliminary screening: reducing PTP1B activity
  IC50: 83 ± 15 µM

## CCCCC[C@H](O)[C@@H](CC[C@H](CCCC)OC(C)=O)OP(=O)(O)O (relative stereo) [Compound 9b]
Human recombinant AR
  % residual activity of human AR: 74 ± 6%
Human recombinant AR; [2]
  remaining activity at 210 µM: 77%
[1]
  Effect on PTP1B activity in preliminary screening: reducing PTP1B activity
  IC50: 63 ± 14 µM

## O=C(O)CNC(=O)CCCCCC[C@H](O)CCCO [Compound 2]
Human recombinant AR
  AR inhibition (in words): ineffective
Human recombinant AR; 71 µM (maximal concentration used), read-out: % residual activity of human AR
  remaining activity at 71 µM: 103 ± 4%
[1]
  Effect on PTP1B activity in preliminary screening: loss of activity

## CCCCC[C@@H](O)[C@@H](O)CC[C@@H](O)CCCC [Compound 4a, (5S,8S,9R)-tetradecane-5,8,9-triol]
Human recombinant AR; [2]
  remaining activity at 43 µM: 97 ± 4%
[1]
  Effect on PTP1B activity in preliminary screening: loss of activity

## CCCCC[C@H](O)[C@H](O)CC[C@@H](O)CCCC [Compound 4b, (5S,8R,9S)-tetradecane-5,8,9-triol]
Human recombinant AR; [2]
  remaining activity at 43 µM: 98 ± 3%
[1]
  Effect on PTP1B activity in preliminary screening: loss of activity

## CCCCCCCCCCCCCCC(OP(=O)(O)O)C(O)CCC(O)C(O)CCC(O)CCCCCCC(=O)NCC(=O)O (stereo not shown) [Phosphoeleganin, phosphoeleganin]
AR
  Type of AR inhibition: mixed-type inhibitor
PTP1B
  Type of PTP1B inhibition: pure non-competitive inhibitor
[1]
  IC50: 0.7 ± 0.1 µM
HepG2 cells
  Activity in HepG2 cells: insulin-sensitizing activity
GST–PTP1B fusion protein
  IC50: 11 ± 2 µM
